These results are taken from patent US20100124555A1, “Compositions and Methods for Treating Pancreatic Tumors” (UNIVERSITE DE LA MEDITERRANEE, priority 2007, published 2010).

One assay deals with NK cells. The assay can be described thus: NK cell activation (ADCC): CD107 mobilization and IFN-γ production by flow cytometry. Type of assay: cell-based, human. The conditions noted are these: presence of SOJ-6 cells. The method, then: Thawed purified human NK cells stimulated or not overnight with 100 UI/mL of IL-2 were mixed with SOJ-6 or B221 cell lines at an effector/target ratio equal to 1, alone or in the presence of rec16D10 (30 μg/mL) or rituxan (10 μg/mL). Cells were then incubated for 4 hours at 37° C. in the presence of FITC conjugated anti-CD107 mAbs (Becton Dickinson) and monensin (sigma). After incubation, cells were washed in PBS containing 2 mM EDTA to disrupt cell conjugates and stained for extracellular markers (PC5 conjugated anti-CD56 and PC7 conjugated anti-CD3 purchased from Beckman coulter). Cells were then fixed and permeabilized using IntraPrep reagent (Beckman Coulter). […] Samples were then analysed on FACScanto (Becton Dickinson).
The chimeric antibody rec16D10 (30 μg/ml) was incubated with target SOJ-6 cells together with NK cells, with or without overnight treatment with IL-2 (100 U/ml) (FIG. 19). As a control, the Rituxan antibody (10 μg/ml) was used with target B221 cells. Effector cells and target cells were used at a ratio of: 1/1 (100000 NK/well). Thawed purified NK cells from two donors (NK1 and NK2) were incubated with the antibodies and target cells. Activation of NK cells was examined by virtue of CD 107 staining and IFN-γ secretion. […] Under similar conditions, approximately 30% of NK1 and NK2 cells secreted IFN-γ (vs. less than 16% and 13% in the absence of antibody or with Rituxan in NK1 and NK2 cells, respectively) (FIG. 21).
A general note: A flow cytometer gives signals particle by particle.

The test system of assay [1] is SOJ-6 cells. Nature of the assay: MTT cell growth and proliferation assay, SOJ-6. It is filed as cell-based, human. To be noted: SOJ-6 treated with raft-disrupting drug or glycosphingolipid biosynthesis inhibitor (10 μM), with mAb16D10. The method, then:
(§1) Cell proliferation was determined using MTT assay as previously described (Mosmann et al., 1983 J Immunol Methods, 65(1-2):55-63). Briefly, cells were seeded at subconfluence in appropriate complete media containing 10% FCS in 96-well culture plates. Media were replaced for 24 h by fresh media with 10% inactivated FCS, including increasing concentrations of antibodies directed against FAPP (pAbL64, mAbJ28 and mAb16D10). Cells were washed with PBS and incubated with 100 μl of MTT (0.5 mg/ml) in complete media for 3 h, washed with PBS and finally incubated with DMSO for 30 min at 37° C. Cell growth was determined by measuring absorbance at 550 nm using a MR 5000 microplate spectrophotometer. All independent determinations were done in triplicate and compared to control.

Assay [2] deals with SOJ-6 cells. Nature of the assay: Apoptosis by caspase activity (CaspACE FITC-VAD-fmk in situ marker). To be noted: SOJ-6, 24 hours; 16D10 25 μg/ml, recombinant chimeric 16D10 5 μg/ml. Type of assay: cell-based, human. The method, then: Cells grown in 8-well plates (Polystyrene vessel, BD Falcon) were treated with mAb16D10 or mouse IgM in RPMI with inactivated FCS for 24 hours prior to the addition of CaspACE FITC-VAD-fmk in situ marker (Promega) at a final concentration of 10 μM in the culture medium according to manufacturer's instructions. Then cells were washed in PBS, fixed for 15 minutes in 2% paraformaldehyde, and washed once again. Upon caspase action on FITC-VAD-fmk, apoptotic cells become fluorescent and the number of fluorescent cells was determined in triplicate on collections of 10 fields randomly examined under the fluorescent microscope.

Assay [3] relates to Bcl-2, Bax, caspases 8 and 9, PARP in SOJ-6 cells. Nature of the assay: SDS-PAGE and western blot of apoptosis proteins. It is filed as cell-based, human. The conditions noted are these: SOJ-6, 24 hours. As for the experimental part: SOJ-6 cells were grown in 6-well culture plates in RPMI 1640 medium with 10% FCS. At subconfluency, the medium was removed and replaced for 24 hours by fresh RPMI medium with 10% inactivated FCS. SOJ-6 cells were then incubated with mAb16D10 or Cisplatin for 24 hours. At the end of incubation, cells were washed three times with ice-cold PBS (without […] and Mg^++) harvested and pelleted by centrifugation. Pellets were washed twice and lysed at 4° C. in 0.5 ml of lysis buffer (10 mM Tris-HCl pH 7.4, 150 mM NaCl, 1% Triton X-100, 1 mM benzamidine and phosphatase inhibitors). After lysis, homogenates were clarified by centrifugation at 10,000 g for 10 min at 4° C. An aliquot was saved for protein determination using the bicinchoninic acid assay (Pierce, Rockford, Ill.). Proteins (50 μg/lane) in reducing SDS buffer were separated onto 10, 12, or 15% polyacrylamide with 0.1% SDS (according to the molecular weight range of proteins to be separated). After electrophoretic migration, proteins were silver stained. Alternatively, proteins were transferred onto nitrocellulose membranes using a Mini Transblot electrophoretic cell (BioRad, Hercule, Oreg.), and transferred proteins were immunodetected by using appropriate primary and secondary antibodies. After washes, membranes were developed with a chemoluminescent substrate according to the manufacturer's instructions (Roche Diagnostics, Switzerland). In each experiment, a control was included by omitting primary antibodies or by using a non-immune serum.
Background: A western blot detects proteins with antibodies after separation by electrophoresis.

Assay [4] has as its system 16D10 epitope on the BSDL/FAPP polypeptide of SOJ-6 cells. Nature of the assay: 16D10 epitope expression on drug-treated cells (immunofluorescence and flow cytometry). It is filed as cell-based, human. The conditions noted are these: for cell morphology of drug-treated cells: SOJ-6, immunofluorescence; for 16D10 staining by immunofluorescence of drug-treated cells: SOJ-6 on glass slides; for Average (16D10 binding, flow cytometry) / 16D10 epitope expression: SOJ-6 treated with 20 μM cisplatin or 5 μM gemcitabine; for Average (16D10 binding, flow cytometry): control 418.7 +/− 50.5; for 16D10 epitope expression: change versus control.
Experimental: Antibody 16D10 binding to SOJ-6 cells following treatment with chemotherapeutic agents was tested in order to assess whether gemcitabine or cisplatin affect the expression of the 16D10 epitope on the BSDL/FAPP polypeptide. Antibody 16D10 binding was assessed by immunofluorescence and flow cytometry following treatment of SOJ-6 cells with 20 μM cisplatin or 5 μM gemcitabine.
For immunofluorescence, SOJ-6 cells were cultured on glass slides and treated or not with gemcitabine or cisplatin, fixed and incubated in the presence of 16D10 and a secondary antibody coupled to fluorescein. Slides were assessed with fluorescence microscope.

Another assay deals with pancreatic cancers. The conditions noted are these: patients with pancreatic cancer; cited from earlier work.
Assay [5] relates to SOJ-6 cells. Nature of the assay: MTT cell growth and proliferation assay, SOJ-6. It is filed as cell-based, human. The conditions noted are these: SOJ-6, 24 hours, gemcitabine 0 to 10 μM or cisplatin 0 to 40 μM.
For a further assay, the system named is PANC-1 cells. Nature of the assay: MTT cell growth and proliferation assay, PANC-1. It is filed as cell-based, human. To be noted: PANC-1, 24 hours, gemcitabine 0 to 10 μM or cisplatin 0 to 40 μM. The method, then:
as §1

In assay [6] the test system is SOJ-6 cells. The assay can be described thus: Nuclear staining with DAPI (nuclear fragmentation). It is filed as cell-based, human. To be noted: RPMI induced no apoptosis. As for the experimental part: After treatment with mAb16D10 or cisplatin, cells were washed in ice-cold PBS, fixed and permeablized with 70% ethanol for 5 min at […] and staining with diluted 1/1000 DAPI solution in PBS for 1 min at room temperature. The cells were then washed with PBS. The nuclear morphology of cells was examined by fluorescence microscopy.

Assay [7] addresses PANC-1. Nature of the assay: isotype control in indirect immunofluorescence flow cytometry (FL1-H) on PANC-1 cells (no FAPP); main peak near the negative control with a tail to about 100-200 FL1-H; antibody concentration not given; row 'Control -': Mean 4,60.
Assay [8] has as its target feto-acinar pancreatic protein (FAPP), oncofetal glycoisoform of pancreatic bile salt-dependent lipase (BSDL), on the surface of SOJ-6 human pancreatic tumor cells (human) (UniProt P19835). Nature of the assay: isotype control in indirect immunofluorescence flow cytometry (FL1-H) on SOJ-6 cells; broad histogram from about 2 to about 300 FL1-H, between the negative control and mAb16D10; antibody concentration not given; row 'Control -': Mean 3,43.

Assay [9] concerns the target PANC-1. Nature of the assay: isotype control in indirect immunofluorescence flow cytometry (FL1-H) on PANC-1 cells (no FAPP); antibody concentration not given; row 'Control -': Median 3,22.
The target in assay [10] is feto-acinar pancreatic protein (FAPP), oncofetal glycoisoform of pancreatic bile salt-dependent lipase (BSDL), on the surface of SOJ-6 human pancreatic tumor cells (human) (UniProt P19835). Nature of the assay: isotype control in indirect immunofluorescence flow cytometry (FL1-H) on SOJ-6 cells; antibody concentration not given; row 'Control -': Median 3,02.
Chain of feto-acinar pancreatic protein (FAPP), oncofetal glycoisoform of pancreatic bile salt-dependent lipase (BSDL), on the surface of SOJ-6 human pancreatic tumor cells (human) (P19835 21-753): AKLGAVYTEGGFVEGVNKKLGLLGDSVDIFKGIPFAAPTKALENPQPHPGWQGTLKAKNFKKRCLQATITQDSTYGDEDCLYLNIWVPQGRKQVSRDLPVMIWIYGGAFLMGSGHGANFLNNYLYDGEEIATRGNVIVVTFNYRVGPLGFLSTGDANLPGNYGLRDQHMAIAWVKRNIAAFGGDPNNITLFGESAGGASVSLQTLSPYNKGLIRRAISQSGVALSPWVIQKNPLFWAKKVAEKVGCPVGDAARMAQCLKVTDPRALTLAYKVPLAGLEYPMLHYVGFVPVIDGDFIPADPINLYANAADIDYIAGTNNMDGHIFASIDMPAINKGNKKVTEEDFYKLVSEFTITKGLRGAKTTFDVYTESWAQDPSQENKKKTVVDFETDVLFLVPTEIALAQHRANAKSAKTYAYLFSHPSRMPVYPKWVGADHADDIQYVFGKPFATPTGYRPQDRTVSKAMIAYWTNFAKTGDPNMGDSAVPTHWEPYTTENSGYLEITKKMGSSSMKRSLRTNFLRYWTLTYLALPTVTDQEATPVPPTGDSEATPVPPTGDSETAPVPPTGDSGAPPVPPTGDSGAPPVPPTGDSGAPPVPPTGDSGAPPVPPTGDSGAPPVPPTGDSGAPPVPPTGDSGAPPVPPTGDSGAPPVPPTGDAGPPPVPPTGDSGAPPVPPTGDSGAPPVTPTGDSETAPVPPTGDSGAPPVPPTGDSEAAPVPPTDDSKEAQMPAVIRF
Assay [11] has as its system SOJ-6 cells. Nature of the assay: Annexin V / PI apoptosis assay. Type of assay: cell-based, human. The conditions noted are these: antibodies 20 μg/ml, tunicamycin 25 or 50 μg/ml. As for the experimental part:
SOJ-6 cells (20.10^4 cells per well) were seeded onto 24 wells plates 72H before to start the experiment. Cells were incubated either with 20 μg/ml 16D10 IgM, or 20 μg/ml of a further recombinant 16D10 IgG1 antibody which contained the 16D10 variable regions linked fused to a human IgG1 constant region and human kappa light region for the heavy and light chains respectively, 25 μg/ml Tunicamycin or 50 μg/ml Tunicamycin. The AnnexinV/PI stainings were performed after 24H of culture using the AnnexinV-FITC Apoptosis Detection Kit I (BD Pharmingen) according to the manufacturer instructions. Stainings were acquired on a FACScan (Becton Dickinson, San Jose, Calif.) and results were analysed using FlowJo Software.

Regarding “Rituxan: Rituxan antibody used as a control with target B221 cells [reference compound]”, the “NK1 cells secreting IFN-γ” value in the assay on NK cells (donor NK1, IL-2 treated) is “less than 16%”. Moreover, the “CD 107-positive staining of NK1 cells” value in the assay with NK cells (donor NK1, IL-2 treated, E/T 1/1, rec16D10 30 μg/ml, Rituxan 10 μg/ml) is listed as below 30%. Besides, the “NK2 cells secreting IFN-γ” value with NK cells (donor NK2, IL-2 treated) is recorded as below 13%. For the same compound, in the assay with NK cells (donor NK2, IL-2 treated, E/T 1/1, rec16D10 30 μg/ml, Rituxan 10 μg/ml), the “CD 107-positive staining of NK2 cells” value was below 20%.

Take methyl-β-cyclodextrin: the “influence on the antiproliferative effect of mAb16D10” value (“influence” for short) in the assay with SOJ-6 cells [1] was “decreased”; in the assay on SOJ-6 cells [1] (listed as MBCD), “decreases or abolishes the cell growth inhibiting activity of antibody 16D10”.

For the compound `N[C@H]1CONC1=O` [L-cyclo-serine], the “influence” value in the assay with SOJ-6 cells [1] is on record as “neither L-cyclo-serine (LCS) (an inhibitor of serine palmitoyltransferase) nor Fumonisin 1 or 2 (both inhibitors of dihydroceramide synthetase) interfered”.

In the case of `Nc1ccn(C2OC(CO)C(O)C2(F)F)c(=O)n1` (stereo not shown) [Gemcitabine, 4-amino-1-[3,3-difluoro-4-hydroxy-5-(hydroxymethyl)tetrahydrofuran-2-yl]-1H-pyrimidin-2-one], in the assay on SOJ-6 cells [2], the “apoptosis by caspase activity (number of apoptotic cells compared to control)” value was “induce apoptosis on SOJ-6 cells”. Also, the “activation of caspase 9 and PARP (immunodetection)” value in assay [3] is “activated”. Moreover, in [4], the “cell morphology of drug-treated cells” value was “clear morphological changes”; the “16D10 staining by immunofluorescence of drug-treated cells” value is “showed staining with 16D10”; the “Average (16D10 binding, flow cytometry)” value is 419.0 +/− 36.2; the 16D10 epitope expression is reported as 0. Also, the “improvement in survival at one year compared to untreated patients” value in the assay on pancreatic cancers is 18%. In addition, the “proliferation by MTT assay” value with SOJ-6 cells [5] is “a decrease in proliferation is seen only in SOJ-6 cells”. Further, the “proliferation by MTT assay” value with PANC-1 cells is “relatively resistant to gemcitabine”.

For `CCCCCCCCCC(=O)NC(CN1CCOCC1)C(O)c1ccccc1` (stereo not shown) [PDMP, Phenyl-2-decanoylamino-3-morpholino-1-propanol], the “influence” value with SOJ-6 cells [1] is given as “impaired the effect of mAb16D10 on SOJ-6 cell proliferation”.

On to `N.N.[Cl][Pt][Cl]` [Cisplatin, cis-diaminedichloridoplatinum(II)], for which the “activation of caspase 9 and PARP (immunodetection)” value in [3] was “activated”. Moreover, the “16D10 surface binding of drug-treated cells (flow cytometry, in words)” value in assay [4] (SOJ-6) was “decrease in expression of the 16D10 epitope”. Also, in assay [4], the “cell morphology of drug-treated cells” value was “clear morphological changes”; the “16D10 staining by immunofluorescence of drug-treated cells” value is recorded as “showed staining with 16D10”; the “Average (16D10 binding, flow cytometry)” value is recorded as 324.6 +/− 26.3; the 16D10 epitope expression was −32.5. Further, the “apoptosis observed by DAPI staining (nuclear fragmentation)” value with SOJ-6 cells [6] is “low level of apoptosis”. The “proliferation by MTT assay” value with SOJ-6 cells [5] was “dose dependent decrease in proliferation is seen for both cell lines”. Moreover, the “proliferation by MTT assay” value in the assay on PANC-1 cells is “dose dependent decrease in proliferation is seen for both cell lines”.

Turning to `CCCC[C@@H](C)[C@@H](OC(=O)C[C@@H](CC(=O)O)C(=O)O)[C@H](C[C@@H](C)C[C@H](O)CCCC[C@@H](O)C[C@H](O)[C@H](C)N)OC(=O)C[C@@H](CC(=O)O)C(=O)O` [Fumonisin 1, Fumonisin B1], in the assay with SOJ-6 cells [1], the “influence” value was “neither L-cyclo-serine (LCS) (an inhibitor of serine palmitoyltransferase) nor Fumonisin 1 or 2 (both inhibitors of dihydroceramide synthetase) interfered”.

IgM mouse SIGMA (antibody): the values for the Mean (with PANC-1 [7]; in assay [8]) were 13 and 86.7, respectively. Besides, the Median with PANC-1 [9] is 4.61; in assay [10], 19.8.

As for tunicamycin [reference compound], the “apoptosis by Annexin V and Annexin V/PI staining” value in the assay on SOJ-6 cells [11] was “induced significant levels of apoptosis”.

As for `CCCCC[C@@H](O)[C@H]1C(=O)O[C@H](C)[C@@H](O)/C=C/C=C/C=C/C=C/C=C(\C)[C@@H](O)C[C@H](O)C[C@H](O)C[C@H](O)C[C@H](O)C[C@H](O)C[C@@H]1O` [Filipin], the “influence” value in the assay on SOJ-6 cells [1] is given as “decreased”.

Turning to `CCCC[C@@H](C)[C@@H](OC(=O)C[C@@H](CC(=O)O)C(=O)O)[C@H](C[C@@H](C)CCCCCC[C@@H](O)C[C@H](O)[C@H](C)N)OC(=O)C[C@@H](CC(=O)O)C(=O)O` [Fumonisin 2, Fumonisin B2], the “influence” value in the assay on SOJ-6 cells [1] is listed as “neither L-cyclo-serine (LCS) (an inhibitor of serine palmitoyltransferase) nor Fumonisin 1 or 2 (both inhibitors of dihydroceramide synthetase) interfered”.
